Experimental data taken from PMC11207335, “In Vitro Metabolism and Transport Characteristics of Zastaprazan” (Pharmaceutics, 2024).
Values joined by “and” are separate entries in the source; they are usually repeats but may differ in a detail not shown here. Equal values may be shown once. Read-outs that look alike come from different tables or passages of the source.

How the values were obtained:
[1] = tested on: CYP3A4/5; test: Combined contribution of CYP3A4/5 to formation of major JP-1366 metabolites; assay type: in vitro ADME, human; settings: sum of CYP3A4 and CYP3A5 contributions
Method: (§1) The reaction was initiated by adding 5 μL of NADPH-generating system in triplicate, and the mixture was further incubated for 30 min at 37 °C in a shaking water bath.
(§2) The concentrations of the metabolites were quantitated, and their formation rates (pmol/mg protein/min) were calculated by dividing the amounts of metabolites formed from the incubation with human liver microsomes and human cDNA-expressed CYP or UGT enzymes by the incubation time.

[2] = tested on: human, dog, monkey, mouse, and rat hepatocytes; test: In vitro metabolic profiling of JP-1366 in hepatocytes; assay type: in vitro ADME; settings: 10 µM JP-1366, 60 min; H human, D dog, Mk monkey, M mouse, R rat
Method: Cryopreserved human, dog, monkey, mouse, and rat hepatocytes were purified and recovered according to the manufacturer’s protocol. […] The metabolic reaction in each sample well was quenched by adding 120 μL of ice-cold acetonitrile.
MS spectra were obtained in positive-ion mode using electrospray ionization under optimized conditions as follows: capillary temperature, 350 °C; sheath gas flow rate, 40 (arbitrary units); aux gas flow rate, 10 (arbitrary units); and aux gas heater temperature, 350 °C. Full MS scan with data-dependent MS/MS was performed from m/z 100 to m/z 1000.

[3] = target: T1, human cDNA-expressed CYP2C19 (Homo sapiens, UniProt P33261); test: Enzyme kinetics of JP-1366 metabolism in cDNA-expressed CYP2C19; assay type: in vitro ADME
T1 construct: purchased Corning Life Sciences
T1 sequence (P33261 whole entry): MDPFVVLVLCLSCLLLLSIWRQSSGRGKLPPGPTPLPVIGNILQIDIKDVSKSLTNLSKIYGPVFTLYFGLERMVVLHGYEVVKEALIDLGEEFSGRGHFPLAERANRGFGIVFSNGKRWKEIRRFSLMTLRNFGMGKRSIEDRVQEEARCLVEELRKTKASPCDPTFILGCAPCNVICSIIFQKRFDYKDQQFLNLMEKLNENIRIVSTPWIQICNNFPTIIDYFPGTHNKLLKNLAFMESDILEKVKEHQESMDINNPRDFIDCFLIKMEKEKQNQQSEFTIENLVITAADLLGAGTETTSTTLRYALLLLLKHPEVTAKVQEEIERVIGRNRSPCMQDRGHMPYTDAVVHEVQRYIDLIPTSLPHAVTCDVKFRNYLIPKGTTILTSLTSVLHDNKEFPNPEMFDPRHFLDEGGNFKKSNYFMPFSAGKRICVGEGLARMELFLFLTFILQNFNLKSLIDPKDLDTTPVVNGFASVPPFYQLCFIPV
Method: as §1, §2

[4] = target: T2, human cDNA-expressed CYP2C9 (Homo sapiens, UniProt P11712); test: Enzyme kinetics of JP-1366 metabolism in cDNA-expressed CYP2C9; assay type: in vitro ADME
T2 construct: purchased Corning Life Sciences
T2 sequence (P11712 whole entry): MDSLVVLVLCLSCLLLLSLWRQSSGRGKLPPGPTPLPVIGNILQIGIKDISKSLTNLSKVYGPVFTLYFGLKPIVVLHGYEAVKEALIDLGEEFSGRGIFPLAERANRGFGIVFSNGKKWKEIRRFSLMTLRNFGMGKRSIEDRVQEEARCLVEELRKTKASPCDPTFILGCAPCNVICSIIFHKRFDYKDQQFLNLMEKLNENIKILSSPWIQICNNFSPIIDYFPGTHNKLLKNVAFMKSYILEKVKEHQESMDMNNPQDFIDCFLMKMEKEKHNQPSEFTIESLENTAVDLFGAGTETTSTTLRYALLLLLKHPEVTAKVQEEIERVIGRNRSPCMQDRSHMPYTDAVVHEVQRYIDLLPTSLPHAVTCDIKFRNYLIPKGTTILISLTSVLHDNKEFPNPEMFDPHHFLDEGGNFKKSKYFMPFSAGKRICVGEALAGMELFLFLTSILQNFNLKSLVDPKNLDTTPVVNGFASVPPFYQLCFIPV
Method: as §1, §2

[5] = target: H^+/K^+-ATPase (Homo sapiens, UniProt P20648); settings: read-out: IC50 for the H^+/K^+-ATPase inhibition; cited from earlier work
H^+/K^+-ATPase, sequence (P20648 whole entry): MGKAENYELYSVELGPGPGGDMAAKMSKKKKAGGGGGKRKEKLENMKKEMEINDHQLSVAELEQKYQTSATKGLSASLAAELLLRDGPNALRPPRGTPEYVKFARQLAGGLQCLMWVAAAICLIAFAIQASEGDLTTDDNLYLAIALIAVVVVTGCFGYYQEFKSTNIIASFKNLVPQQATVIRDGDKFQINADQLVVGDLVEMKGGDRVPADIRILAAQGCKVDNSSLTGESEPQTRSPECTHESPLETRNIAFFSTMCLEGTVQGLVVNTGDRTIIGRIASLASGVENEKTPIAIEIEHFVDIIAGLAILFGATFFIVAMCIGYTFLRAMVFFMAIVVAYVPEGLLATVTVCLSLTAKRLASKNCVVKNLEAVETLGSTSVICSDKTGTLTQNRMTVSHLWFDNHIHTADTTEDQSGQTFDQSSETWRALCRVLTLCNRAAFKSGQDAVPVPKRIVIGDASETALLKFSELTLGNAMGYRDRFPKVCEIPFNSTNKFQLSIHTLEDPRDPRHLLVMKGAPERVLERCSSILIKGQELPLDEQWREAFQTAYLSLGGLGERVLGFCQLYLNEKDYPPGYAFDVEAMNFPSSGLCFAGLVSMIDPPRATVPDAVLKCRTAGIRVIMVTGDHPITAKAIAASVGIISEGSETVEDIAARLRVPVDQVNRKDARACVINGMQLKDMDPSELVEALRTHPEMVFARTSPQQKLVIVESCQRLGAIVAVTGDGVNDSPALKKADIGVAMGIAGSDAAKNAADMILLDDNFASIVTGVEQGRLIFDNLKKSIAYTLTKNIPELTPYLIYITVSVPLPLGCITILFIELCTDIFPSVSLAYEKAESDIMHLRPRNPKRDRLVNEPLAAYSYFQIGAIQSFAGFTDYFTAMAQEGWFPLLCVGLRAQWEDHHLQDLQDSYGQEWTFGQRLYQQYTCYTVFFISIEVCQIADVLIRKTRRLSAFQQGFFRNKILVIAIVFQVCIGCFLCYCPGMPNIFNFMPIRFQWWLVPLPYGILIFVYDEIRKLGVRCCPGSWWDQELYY
H^+/K^+-ATPase, sequence (P51164 whole entry partner): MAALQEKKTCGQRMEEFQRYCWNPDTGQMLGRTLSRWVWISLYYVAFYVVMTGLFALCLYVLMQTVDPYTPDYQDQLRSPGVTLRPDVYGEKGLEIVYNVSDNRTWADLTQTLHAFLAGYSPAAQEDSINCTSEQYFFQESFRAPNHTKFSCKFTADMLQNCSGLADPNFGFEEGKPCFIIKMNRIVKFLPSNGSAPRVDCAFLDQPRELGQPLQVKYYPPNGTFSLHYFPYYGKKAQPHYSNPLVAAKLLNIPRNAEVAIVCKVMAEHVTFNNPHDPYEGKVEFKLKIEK

[6] = target: T3, human cDNA-expressed CYP3A5 (Homo sapiens, UniProt P20815); test: Enzyme kinetics of JP-1366 metabolism in cDNA-expressed CYP3A5; assay type: in vitro ADME
T3 construct: purchased Corning Life Sciences
T3 sequence (P20815 whole entry): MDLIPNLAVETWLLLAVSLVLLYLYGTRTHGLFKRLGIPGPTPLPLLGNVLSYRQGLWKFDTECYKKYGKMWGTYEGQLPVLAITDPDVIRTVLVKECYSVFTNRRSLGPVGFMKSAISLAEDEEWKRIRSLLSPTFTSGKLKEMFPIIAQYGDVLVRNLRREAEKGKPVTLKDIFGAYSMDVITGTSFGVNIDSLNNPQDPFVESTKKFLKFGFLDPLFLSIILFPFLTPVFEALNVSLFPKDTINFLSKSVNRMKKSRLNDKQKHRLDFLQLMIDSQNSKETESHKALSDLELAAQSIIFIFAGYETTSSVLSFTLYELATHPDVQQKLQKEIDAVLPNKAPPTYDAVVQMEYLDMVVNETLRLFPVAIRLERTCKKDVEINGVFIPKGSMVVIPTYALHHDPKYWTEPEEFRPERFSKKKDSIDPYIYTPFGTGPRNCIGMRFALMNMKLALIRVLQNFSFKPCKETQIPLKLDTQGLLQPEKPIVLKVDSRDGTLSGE
Method: as §1, §2

[7] = tested on: GERD lesion; settings: rats, compared with vonoprazan; cited from earlier work
[8] = target: MT1 (Homo sapiens, UniProt P48039); test: BioPrint profiling, MT1; settings: BioPrint profiling (Eurofins CEREP)
MT1, sequence (P48039 whole entry): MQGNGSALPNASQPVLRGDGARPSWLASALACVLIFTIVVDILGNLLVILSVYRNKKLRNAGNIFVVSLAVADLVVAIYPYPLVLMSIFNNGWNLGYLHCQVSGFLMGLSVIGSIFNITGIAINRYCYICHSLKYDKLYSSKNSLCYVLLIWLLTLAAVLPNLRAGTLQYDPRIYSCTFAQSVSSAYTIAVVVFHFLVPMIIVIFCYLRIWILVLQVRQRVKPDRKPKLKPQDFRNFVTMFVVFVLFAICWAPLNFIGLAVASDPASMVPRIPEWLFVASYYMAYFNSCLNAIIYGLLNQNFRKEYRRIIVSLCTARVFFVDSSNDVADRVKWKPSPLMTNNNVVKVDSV
Excerpt: (§3) However, the involvement of multiple metabolizing enzymes such as CYP1A2, CYP2C9/19, CYP1A2, and CYP2D6 with a minor contribution in the formation of M1, M6, M19, and M21 and the involvement of UGT1A1 and UGT2B7 in the formation of M15 from M1 and the formation of 23 metabolites might reduce the risk of drug–drug interaction potential mediated by a single metabolizing enzyme and a main metabolite. Additionally, it may reduce the intersubject variability caused by genetic variations in these metabolizing enzymes.

[9] = tested on: gastric acid secretion; settings: lumen-perfused rat model, among JP-1366, vonoprazan, and tegoprazan; cited from earlier work
[10] = Metabolic stability of JP-1366 in human hepatocytes; assay type: in vitro ADME; settings: cryopreserved human hepatocytes
Method: (§4) According to the manufacturer’s protocol, cryopreserved human, dog, monkey, mouse, and rat hepatocytes were purified and recovered. […] The metabolic reaction in each sample well was quenched by adding 120 μL of ice-cold acetonitrile.
(§5) Log-transformed relative responses of JP-1366 were plotted against incubation time, thereby obtaining the elimination slope (k) from the linear regression analysis. […] (1) t1 /2(min)=ln2/kelimination slope (2) Clint(mL/min/kg)=ln2/t1/2×mL incubation/hepatocyte (10^6 cells)×B×10^6 cells/g liver×A g liver/kg BW (3) Clhep(mL/min/kg)=Qh×Clint/Qh+Clint (4) HER=Clhep/Qh
(§6) Here, A means the liver weight parameters and has values of 25.7, 32, 30, 87.5, and 40; B means the cell number parameters and has values of 139, 215, 120, 135, and 117; Qh represents hepatic blood flow and has values of 20.7, 30.9, 43.6, 90, and 55.2 mL/min/kg for humans, dogs, monkeys, mice, and rats, respectively. Hepatic extraction ratios (HERs) of ≤0.25, 0.25–0.75, and ≥0.75 were regarded as low, moderate, and high, respectively.

[11] = tested on: human hepatocytes; test: as above; assay type: in vitro ADME; settings: human hepatocytes
Method: as §4, §5, §6

[12] = Metabolic stability of JP-1366 in dog hepatocytes; assay type: in vitro ADME; settings: cryopreserved dog hepatocytes
Method: as §4, §5, §6

[13] = tested on: dog hepatocytes; test: Metabolic stability of JP-1366 in dog hepatocytes; assay type: in vitro ADME; settings: dog hepatocytes
Method: as §4, §5, §6

[14] = target: A3 (Homo sapiens, UniProt P0DMS8); test: BioPrint profiling, A3; settings: BioPrint profiling (Eurofins CEREP)
A3, sequence (P0DMS8 whole entry): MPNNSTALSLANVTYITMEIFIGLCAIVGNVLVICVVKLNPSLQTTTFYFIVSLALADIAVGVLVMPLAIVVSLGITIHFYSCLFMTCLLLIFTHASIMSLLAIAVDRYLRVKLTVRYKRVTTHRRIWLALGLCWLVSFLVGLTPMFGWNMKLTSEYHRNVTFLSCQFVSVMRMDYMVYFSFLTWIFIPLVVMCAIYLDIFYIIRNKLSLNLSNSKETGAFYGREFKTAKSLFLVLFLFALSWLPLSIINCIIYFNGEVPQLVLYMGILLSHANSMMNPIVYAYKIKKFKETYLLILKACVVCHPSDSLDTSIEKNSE
Excerpt: as §3

[15] = Metabolic stability of JP-1366 in mouse hepatocytes; assay type: in vitro ADME; settings: cryopreserved mouse hepatocytes
Method: as §4, §5, §6

[16] = tested on: mouse hepatocytes; test: as above; assay type: in vitro ADME; settings: mouse hepatocytes
Method: as §4, §5, §6

[17] = Metabolic stability of JP-1366 in rat hepatocytes; assay type: in vitro ADME; settings: cryopreserved rat hepatocytes
Method: as §4, §5, §6

[18] = tested on: rat hepatocytes; test: Metabolic stability of JP-1366 in rat hepatocytes; assay type: in vitro ADME; settings: rat hepatocytes
Method: as §4, §5, §6

[19] = Metabolic stability of JP-1366 in monkey hepatocytes; assay type: in vitro ADME; settings: cryopreserved monkey hepatocytes
Method: as §4, §5, §6

[20] = tested on: monkey hepatocytes; test: as above; assay type: in vitro ADME; settings: monkey hepatocytes
Method: as §4, §5, §6

[21] = tested on: Cl^- channel; test: BioPrint profiling, Cl- channel; settings: BioPrint profiling (Eurofins CEREP)
[22] = tested on: gastric pH; settings: cited from earlier work; for % time pH > 4.0 over a period of 24 h: 40 mg dose group, healthy subjects
[23] = target: α2B (Homo sapiens, UniProt P18089); test: BioPrint profiling, α2B; settings: BioPrint profiling (Eurofins CEREP)
α2B, sequence (P18089 whole entry): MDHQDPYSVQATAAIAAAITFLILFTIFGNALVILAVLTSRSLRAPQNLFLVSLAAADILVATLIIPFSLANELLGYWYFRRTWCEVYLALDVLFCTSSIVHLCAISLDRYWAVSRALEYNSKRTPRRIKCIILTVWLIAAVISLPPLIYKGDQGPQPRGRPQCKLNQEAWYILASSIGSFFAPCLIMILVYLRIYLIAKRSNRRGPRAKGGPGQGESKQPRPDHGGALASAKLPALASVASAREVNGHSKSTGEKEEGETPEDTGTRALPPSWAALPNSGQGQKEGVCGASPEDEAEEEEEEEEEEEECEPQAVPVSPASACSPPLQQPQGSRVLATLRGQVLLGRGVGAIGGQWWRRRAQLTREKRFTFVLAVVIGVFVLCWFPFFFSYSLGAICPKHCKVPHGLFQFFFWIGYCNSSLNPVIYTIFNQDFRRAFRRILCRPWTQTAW

[24] = formation of the labelled metabolite from JP-1366, CYP2C19
[25] = formation of the labelled metabolite from JP-1366, CYP2C9
[26] = formation of the labelled metabolite from JP-1366, CYP3A5

In the case of `Cc1cccc(CO)c1CNc1cc(C(=O)N2CCC2)cn2c(C)c(C)nc12` [M1, azetidin-1-yl(8-((2-(hydroxymethyl)-6-methyl-benzyl)amino)-2,3-dimethylimidazo[1,2-a]pyridin-6-yl)methanone], the “contribution of CYP3A4/5 to formation of the metabolite from JP-1366” value [1] is reported as 85.9%, the “Hepatocytes (species in which the metabolite was found)” value [2] is reported as “H, D, Mk, M, R” and the CLint [3, 24] is reported as 0.068 μL/min/pmol CYP. The “n (Hill coefficient)” value [3, 24] was 1.6, the “Contribution (%)” value ([3]; relative contribution of CYP2C19 to formation of the labelled metabolite) was 0.1% and the CLint [4, 25] was 0.14 μL/min/pmol CYP. For the same compound, the “n (Hill coefficient)” value [4, 25] was 1.2, the “Contribution (%)” value ([4]; relative contribution of CYP2C9 to formation of the labelled metabolite) was 10.3% and the IC50 [5] was 66.5 nM. The CLint [6, 26] was 0.33 μL/min/pmol CYP, the “n (Hill coefficient)” value [6, 26] was 1.5 and the “Contribution (%)” value ([6]; relative contribution of CYP3A5 to formation of the labelled metabolite) was 68.6%.
For `Cc1cccc(C)c1CNc1cc(C(=O)N2CCC2)cn2c(C)c(C)nc12` [JP-1366, 1-azetidinyl(8-(((2,6-dimethylphenyl)methyl)amino)-2,3-dimethylimidazo(1,2-a)pyridin-6-yl)methanone], the “GERD lesion inhibition rates” value [7] is given as “greater GERD lesion inhibition rates”, the IC50 [8] is given as 870 nM and the “gastric acid secretion inhibitory effect” value [9] is given as “fastest-acting and superior gastric acid secretion inhibitory effect”. For the same compound, the CLint scaled at 1 µM ([10]; human hepatocytes, scaled with physiological parameters) was 77.5 mL/min/kg, the half-life at 1 µM ([10]; human) was 63.9 min and the CLhep [11] was 16.3 mL/min/kg. The HER [11] was 0.79, the CLint scaled at 1 µM ([12]; dog hepatocytes, scaled with physiological parameters) was 150 mL/min/kg and the half-life at 1 µM ([12]; dog) was 63.5 min. The CLhep [13] was 25.6 mL/min/kg, the HER [13] was 0.83 and the IC50 [14] was 2700 nM. For the same compound, the CLint scaled at 1 µM ([15]; mouse hepatocytes, scaled with physiological parameters) was 461 mL/min/kg, the half-life at 1 µM ([15]; mouse) was 59.2 min and the CLhep [16] was 75.3 mL/min/kg. For the same compound, the HER [16] was 0.84, the CLint scaled at 1 µM ([17]; rat hepatocytes, scaled with physiological parameters) was 138 mL/min/kg and the half-life at 1 µM ([17]; rat) was 47.1 min. It also gave a CLhep [18] of 39.4 mL/min/kg, an HER [18] of 0.71 and a CLint scaled at 1 µM ([19]; monkey hepatocytes, scaled with physiological parameters) of 110 mL/min/kg. It also gave a half-life at 1 µM ([19]; monkey) of 48.4 min, a CLhep [20] of 31.1 mL/min/kg and an HER [20] of 0.72. For the same compound, the IC50 [21] was 910 nM, the “% time pH > 4.0 over a period of 24 h” value ([22]; MAD) was 89.28 ± 9.12% and 89.28% ± 9.12% and the “% time pH > 4.0 over a period of 24 h” value ([22]; SAD) was 91.84% ± 4.06%. The “% time pH > 4 at nighttime” value ([22]; repeated 40 mg dose) was 89.28% ± 9.12% and the IC50 [23] was 1200 nM.
